Data from patent US5863917A, “Quinoxaline derivatives useful in therapy” (Pfizer, Inc., priority 1996, dated 1999).

Target: T1, glycine site of the NMDA receptor (Rattus norvegicus, UniProt P35439)
T1 construct: rat brain membranes; from tissue; host or cells: rat brain membranes
Assay: Binding affinity for the glycine site of the NMDA receptor (test (a))
Settings: displacement of a selective glycine site radioligand ([3H]-L-689,560) from rat brain membranes, tris-acetate buffer pH 7.4, 90 minutes
Procedure: (a) Binding affinity for the glycine site of the NMDA receptor
This may be measured by testing a compound's ability to displace a selective glycine site radioligand from rat brain membranes as described in Brit J Pharm (1991), 104, 74. In a variation of this method, thoroughly washed membrane protein is incubated with [^3 H]-L-689,560 for 90 minutes using tris-acetate buffer (pH 7.4). Displacement of the radioligand, using a range of test compound concentrations, is used to derive IC50 (50% inhibitory concentration) values.

IC50, < 100 nM:
Cc1cc2[nH]c(=O)c(=O)[nH]c2c(N(CC(=O)O)S(C)(=O)=O)c1Cl [5 [the (-)-isomer]]
CS(=O)(=O)NCCN(c1c(Cl)c(Cl)cc2[nH]c(=O)c(=O)[nH]c12)S(C)(=O)=O [Example 1, N-(1,4-Dihydro-6,7-dichloro-2,3-dioxoquinoxalin-5-yl)-N-(2-(N'-methanesulphonyl)-aminoethyl)methanesulphonamide]
Cn1cnc(S(=O)(=O)NCCN(c2c(Cl)c(Cl)cc3[nH]c(=O)c(=O)[nH]c23)S(C)(=O)=O)c1 [Example 2, N-(1,4-Dihydro-6,7-dichloro-2,3-dioxoquinoxalin-5-yl)-N-(2-(N'-4-(1H-1-methylimidazolyl)sulphonyl)aminoethyl)methanesulphonamide]
Cc1c(Cl)cc2[nH]c(=O)c(=O)[nH]c2c1N(CC(=O)O)S(C)(=O)=O [Example 3, N-(Carboxymethyl)-N-(1,4-dihydro-7-chloro-6-methyl-2,3-dioxoquinoxalin-5-yl)methanesulphonamide]
Cc1c(Cl)cc2[nH]c(=O)c(=O)[nH]c2c1N(CCNS(=O)(=O)C(F)(F)F)S(C)(=O)=O [Example 4]
Cc1cc2[nH]c(=O)c(=O)[nH]c2c(N(CC(=O)O)S(C)(=O)=O)c1C [Example 7, N-(Carboxymethyl)-N-(1,4dihydro-6,7-dimethyl-2,3-dioxoquinoxalin-5-yl)methanesulphonamide]
COC(=O)CN(c1c(C)c(C)cc2[nH]c(=O)c(=O)[nH]c12)S(C)(=O)=O [Example 10]
CCOC(=O)CN(c1c(C)c(C)cc2[nH]c(=O)c(=O)[nH]c12)S(C)(=O)=O [Example 11]
CCCOC(=O)CN(c1c(C)c(C)cc2[nH]c(=O)c(=O)[nH]c12)S(C)(=O)=O [Example 12]
